Results as given in the Kinase Knowledgebase extract (Sharma et al. 2016).

Each molecule was assayed against PIK3CG (human) (UniProt P48736) (assay: Assessment of PIK3CG Kinase Activity).
Chain of PIK3CG (human) (P48736 whole entry, looked up): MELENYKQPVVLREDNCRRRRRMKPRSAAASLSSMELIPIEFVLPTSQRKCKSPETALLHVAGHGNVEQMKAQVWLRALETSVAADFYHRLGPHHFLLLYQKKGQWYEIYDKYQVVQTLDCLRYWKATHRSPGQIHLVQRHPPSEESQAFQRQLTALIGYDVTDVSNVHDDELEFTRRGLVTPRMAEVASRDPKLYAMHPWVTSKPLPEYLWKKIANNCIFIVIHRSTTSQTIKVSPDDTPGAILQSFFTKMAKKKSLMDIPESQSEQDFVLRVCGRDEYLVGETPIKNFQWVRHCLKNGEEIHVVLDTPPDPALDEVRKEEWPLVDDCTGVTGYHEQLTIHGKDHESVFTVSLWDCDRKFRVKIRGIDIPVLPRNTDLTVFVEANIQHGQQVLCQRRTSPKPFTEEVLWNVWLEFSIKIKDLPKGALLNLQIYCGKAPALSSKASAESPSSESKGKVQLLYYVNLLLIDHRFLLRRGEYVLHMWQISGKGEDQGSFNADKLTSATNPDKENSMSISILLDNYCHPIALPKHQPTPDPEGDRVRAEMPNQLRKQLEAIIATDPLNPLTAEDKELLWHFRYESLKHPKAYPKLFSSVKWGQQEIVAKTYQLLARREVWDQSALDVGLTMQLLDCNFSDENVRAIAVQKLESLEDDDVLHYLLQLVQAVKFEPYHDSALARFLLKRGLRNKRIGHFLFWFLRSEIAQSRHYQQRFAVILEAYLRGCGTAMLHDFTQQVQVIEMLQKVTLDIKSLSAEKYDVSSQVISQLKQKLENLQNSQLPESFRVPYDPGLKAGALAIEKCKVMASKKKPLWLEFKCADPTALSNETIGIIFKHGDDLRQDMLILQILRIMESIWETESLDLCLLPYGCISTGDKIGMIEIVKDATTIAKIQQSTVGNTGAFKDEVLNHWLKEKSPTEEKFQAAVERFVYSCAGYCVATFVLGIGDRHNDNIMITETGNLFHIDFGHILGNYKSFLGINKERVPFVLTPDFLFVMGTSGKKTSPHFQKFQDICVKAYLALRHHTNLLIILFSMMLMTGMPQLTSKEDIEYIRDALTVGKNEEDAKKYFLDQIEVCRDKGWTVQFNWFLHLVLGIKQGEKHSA

IC50, < 800 nM:
CC(C)N1CC(=O)N(C)c2cnc(Nc3cccc(S(=O)(=O)CCO)c3)nc21, CC(C)N1CC(=O)N(C)c2cnc(Nc3cc(NC(=O)NC[C@@H]4CCCO4)cc(S(C)(=O)=O)c3)nc21, CC(C)N1CC(=O)N(C)c2cnc(Nc3cc(NC(=O)Cc4c[nH]c5ccccc45)cc(S(C)(=O)=O)c3)nc21, CC(C)N1CC(=O)N(C)c2cnc(Nc3cc(NS(=O)(=O)c4ccc(F)cc4)cc(S(C)(=O)=O)c3)nc21, CC(C)N1CC(=O)N(C)c2cnc(Nc3cc(C(=O)NCCC4CCCN4C)cc(C(F)(F)F)c3)nc21 (stereo unspecified), CC(C)N1CC(=O)N(C)c2cnc(Nc3cc(NS(C)(=O)=O)cc(C(=O)NCc4ccncc4)c3)nc21, CC(C)N1CC(=O)N(C)c2cnc(Nc3cc(N4CCNC4=O)cc(S(C)(=O)=O)c3)nc21, CC(C)N1CC(=O)N(C)c2cnc(Nc3cc(N(C)C(=O)NCc4ccccc4)cc(S(C)(=O)=O)c3)nc21, CC(C)N1CC(=O)N(C)c2cnc(Nc3cc(C(F)(F)F)cc(S(C)(=O)=O)c3)nc21, CNC(=O)c1cc(Nc2ncc3c(n2)N(C(C)C)CC(=O)N3C)cc(C(F)(F)F)c1, CC(C)N1CC(=O)N(C)c2cnc(Nc3cc(NC(=O)Cc4nnn[nH]4)cc(S(C)(=O)=O)c3)nc21, CC(C)N1CC(=O)N(C)c2cnc(Nc3cc(NC(=O)N4CCOCC4)cc(S(C)(=O)=O)c3)nc21, CC(C)N1CC(=O)N(C)c2cnc(Nc3cc(NC(=O)Cc4cc5cc(F)ccc5[nH]4)cc(S(C)(=O)=O)c3)nc21, CC(C)N1CC(=O)N(C)c2cnc(Nc3cc(NC(=O)NCc4ccncc4)cc(S(C)(=O)=O)c3)nc21, CC(C)N1CC(=O)N(C)c2cnc(Nc3cc(NS(C)(=O)=O)cc(C(=O)NCCN4CCNC4=O)c3)nc21, CC(C)N1CC(=O)N(C)c2cnc(Nc3cc(N(C)C(=O)Cc4ccsc4)cc(S(C)(=O)=O)c3)nc21, CC(C)N1CC(=O)N(C)c2cnc(Nc3cc(NS(=O)(=O)c4ccc(N5CCOCC5)nc4)cc(S(N)(=O)=O)c3)nc21, CNCCS(=O)(=O)c1cccc(Nc2ncc3c(n2)N(C(C)C)CC(=O)N3C)c1, CC(C)N1CC(=O)N(C)c2cnc(Nc3cccc(S(=O)(=O)CCN4CCN(C)CC4)c3)nc21, CC(C)N1CC(=O)N(C)c2cnc(Nc3cc(NC(=O)NCC4CC4)cc(S(C)(=O)=O)c3)nc21, CC(C)N1CC(=O)N(C)c2cnc(Nc3cc(NC(=O)C[C@H]4CCN(C5CCCC5)C4)cc(S(C)(=O)=O)c3)nc21, CC(C)N1CC(=O)N(C)c2cnc(Nc3cc(NC(=O)[C@H](C)c4ccccc4)cc(S(C)(=O)=O)c3)nc21, CNC(=O)c1cc(Nc2ncc3c(n2)N(C(C)C)CC(=O)N3C)cc(S(C)(=O)=O)c1, CC(C)N1CC(=O)N(C)c2cnc(Nc3cc(NS(C)(=O)=O)cc(C(=O)NCCCCN(C)C)c3)nc21, CC(C)N1CC(=O)N(C)c2cnc(Nc3cc(NS(=O)(=O)CC4CCCCC4)cc(S(C)(=O)=O)c3)nc21, Cc1[nH]c2ccccc2c1CC(=O)Nc1cc(Nc2ncc3c(n2)N(C(C)C)CC(=O)N3C)cc(S(C)(=O)=O)c1, CC(C)N1CC(=O)N(C)c2cnc(Nc3cccc(S(=O)(=O)CCN(C)C)c3)nc21, CC(C)N1CC(=O)N(C)c2cnc(Nc3cc(N(C)C(=O)Nc4ccccc4)cc(S(C)(=O)=O)c3)nc21, CNS(=O)(=O)c1cccc(Nc2ncc3c(n2)N(C(C)C)CC(=O)N3C)c1, CC(C)N1CC(=O)N(C)c2cnc(Nc3cc(NC(=O)NC[C@H]4CCNC4)cc(S(C)(=O)=O)c3)nc21, CC(C)N1CC(=O)N(C)c2cnc(Nc3cc(NC(=O)N(C)Cc4ccncc4)cc(S(C)(=O)=O)c3)nc21, CC(C)N1CC(=O)N(C)c2cnc(Nc3cc(N(C)C(=O)N[C@H]4CCN(Cc5ccccc5)C4)cc(S(C)(=O)=O)c3)nc21, CC(C)N1CC(=O)N(C)c2cnc(Nc3cc(NC(=O)Cc4cccc(Cl)c4)cc(S(C)(=O)=O)c3)nc21, CC(C)N1CC(=O)N(C)c2cnc(Nc3cc(NC(=O)NC[C@H]4CCCN4)cc(S(C)(=O)=O)c3)nc21, CC(C)N1CC(=O)N(C)c2cnc(Nc3cc(NC(=O)Cc4ccc(Cl)nc4)cc(S(C)(=O)=O)c3)nc21, CC(C)N1CC(=O)N(C)c2cnc(Nc3cc(C(=O)NCCN(C)C)cc(S(C)(=O)=O)c3)nc21, CC(C)N1CC(=O)N(C)c2cnc(Nc3cc(NC(=O)[C@H]4CCNC4)cc(S(C)(=O)=O)c3)nc21, CC(C)N1CC(=O)N(C)c2cnc(Nc3cc(NC(=O)NC[C@H]4CCCN4c4ccncc4)cc(S(C)(=O)=O)c3)nc21, CC(C)N1CC(=O)N(C)c2cnc(Nc3cc(-c4cc(C5CC5)[nH]n4)cc(S(C)(=O)=O)c3)nc21, CCN1CCCC1CNC(=O)c1cc(Nc2ncc3c(n2)N(C(C)C)CC(=O)N3C)cc(S(C)(=O)=O)c1 (stereo unspecified), CC(C)N1CC(=O)N(C)c2cnc(Nc3cc(NC(=O)c4cccc(C#N)c4)cc(S(C)(=O)=O)c3)nc21, CCc1cnc(CCNC(=O)Nc2cc(Nc3ncc4c(n3)N(C(C)C)CC(=O)N4C)cc(S(C)(=O)=O)c2)o1, CCC(C(=O)Nc1cc(Nc2ncc3c(n2)N(C(C)C)CC(=O)N3C)cc(S(C)(=O)=O)c1)c1ccccc1 (stereo unspecified), CC(C)N1CC(=O)N(C)c2cnc(Nc3cc(NC(=O)Cc4noc5ccccc45)cc(S(C)(=O)=O)c3)nc21, Cc1cc(CC(=O)N(C)c2cc(Nc3ncc4c(n3)N(C(C)C)CC(=O)N4C)cc(S(C)(=O)=O)c2)on1, CC(C)N1CC(=O)N(C)c2cnc(Nc3cc(NC(=O)N[C@H]4CCNC4)cc(S(C)(=O)=O)c3)nc21, CC(C)N1CC(=O)N(C)c2cnc(Nc3cccc(S(=O)(=O)CCN4CCOCC4)c3)nc21, CC(C)N1CC(=O)N(C)c2cnc(Nc3cc(NC(=O)NC4CCN(C)CC4)cc(S(C)(=O)=O)c3)nc21, COc1ccc2[nH]c(CC(=O)Nc3cc(Nc4ncc5c(n4)N(C(C)C)CC(=O)N5C)cc(S(C)(=O)=O)c3)cc2c1, CC(C)N1CC(=O)N(C)c2cnc(Nc3cc(NS(C)(=O)=O)cc(C(=O)NCCN(C)C)c3)nc21, CC(C)N1CC(=O)N(C)c2cnc(Nc3cc(NC(=O)NCCCN(C)C)cc(S(C)(=O)=O)c3)nc21, CC(C)N1CC(=O)N(C)c2cnc(Nc3cc(NC(=O)C[C@@H]4CCNC4)cc(S(C)(=O)=O)c3)nc21, CC(C)N1CC(=O)N(C)c2cnc(Nc3cc(N(C)C(=O)N[C@@H](C)c4ccccc4)cc(S(C)(=O)=O)c3)nc21, Cc1cccc(CC(=O)Nc2cc(Nc3ncc4c(n3)N(C(C)C)CC(=O)N4C)cc(S(C)(=O)=O)c2)c1, COc1cc(Nc2ncc3c(n2)N(C(C)C)CC(=O)N3C)cc(S(C)(=O)=O)c1, CC(C)N1CC(=O)N(C)c2cnc(Nc3cc(NC(=O)[C@H]4CCCN(C5CCCC5)C4)cc(S(C)(=O)=O)c3)nc21, CC(C)N1CC(=O)N(C)c2cnc(Nc3cc(NC(=O)NC[C@@H]4CCCN4C4CCCC4)cc(S(C)(=O)=O)c3)nc21, CC(C)N1CC(=O)N(C)c2cnc(Nc3cc(C(=O)NC4CCN(C)CC4)cc(S(C)(=O)=O)c3)nc21, CC(C)N1CC(=O)N(C)c2cnc(Nc3cc(NC(=O)N[C@H]4CCN(C(=O)OC(C)(C)C)C4)cc(S(C)(=O)=O)c3)nc21, CC(C)N1CC(=O)N(C)c2cnc(Nc3cc(NC(=O)N[C@H]4CCN(C5CCOCC5)C4)cc(S(C)(=O)=O)c3)nc21, CC(C)N1CC(=O)N(C)c2cnc(Nc3cc(NS(C)(=O)=O)cc(C(F)(F)F)c3)nc21, CC(C)N1CC(=O)N(C)c2cnc(Nc3cc(NC(=O)N[C@H]4CC[C@@H](N)CC4)cc(S(C)(=O)=O)c3)nc21, CC(C)N1CC(=O)N(C)c2cnc(Nc3cc(Br)cc(S(C)(=O)=O)c3)nc21, CC(C)N1CC(=O)N(C)c2cnc(Nc3cc(C(N)=O)cc(S(C)(=O)=O)c3)nc21, CC(C)N1CC(=O)N(C)c2cnc(Nc3cc(NC(=O)CC4CCCC4)cc(S(C)(=O)=O)c3)nc21, CC(C)N1CC(=O)N(C)c2cnc(Nc3cccc(S(=O)(=O)C(C)C)c3)nc21, CC(C)N1CC(=O)N(C)c2cnc(Nc3cc(NC(=O)C4CCCCN4)cc(S(C)(=O)=O)c3)nc21 (stereo unspecified), CC(C)N1CC(=O)N(C)c2cnc(Nc3cc(CS(C)(=O)=O)cc(C(F)(F)F)c3)nc21, CC(C)N1CC(=O)N(C)c2cnc(Nc3cc(C(N)=O)cc(C(F)(F)F)c3)nc21, CC(C)N1CC(=O)N(C)c2cnc(Nc3cc(NC(=O)Cc4cc5ccccc5n4C)cc(S(C)(=O)=O)c3)nc21, CC(C)N1CC(=O)N(C)c2cnc(Nc3cc(C(=O)NCCCN(C)C)cc(S(C)(=O)=O)c3)nc21, CC(C)N1CC(=O)N(C)c2cnc(Nc3cc(NC(=O)[C@@H](N)c4ccccc4)cc(S(C)(=O)=O)c3)nc21, CC(C)N1CC(=O)N(C)c2cnc(Nc3cc(NC(=O)NCCc4cccnc4)cc(S(C)(=O)=O)c3)nc21, CC(C)N1CC(=O)N(C)c2cnc(Nc3cc(NC(=O)Cc4ccccc4)cc(S(C)(=O)=O)c3)nc21, CC(C)N1CC(=O)N(C)c2cnc(Nc3cc(NC(=O)c4csc5ccccc45)cc(S(C)(=O)=O)c3)nc21, CC(C)N1CC(=O)N(C)c2cnc(Nc3cc(C(=O)NCCN4CCNC4=O)cc(C(F)(F)F)c3)nc21, CC(C)N1CC(=O)N(C)c2cnc(Nc3cc(Cl)cc(S(C)(=O)=O)c3)nc21, CC(C)N1CC(=O)N(C)c2cnc(Nc3cc(NC(=O)Cc4cccnc4)cc(S(C)(=O)=O)c3)nc21, CC(C)N1CC(=O)N(C)c2cnc(Nc3cc(NC(=O)N[C@H]4CCN(C5CCCC5)C4)cc(S(C)(=O)=O)c3)nc21, CC(C)N1CC(=O)N(C)c2cnc(Nc3cc(C(=O)NCCN4CCNC4=O)cc(S(C)(=O)=O)c3)nc21, CC(C)N1CC(=O)N(C)c2cnc(Nc3cc(NC(=O)NC[C@@H]4CCNC4)cc(S(C)(=O)=O)c3)nc21
